This data set addresses HBV. As to conditions: ASO.

Several values for one entry are separate records, joined by “and”; a condition that tells them apart may be missing. Equal entries are not always repeated. HELM strings list units from the 5' end as sugar, base in round brackets, then linkage (d deoxyribose, r ribose, m 2'-O-methyl, p phosphodiester). Methylation of C is not given here. [moe] = 2'-O-(2-methoxyethyl) (MOE); [cEt] = constrained ethyl (cEt); [sp] = phosphorothioate linkage

With “RNA1{[moe](A)[sp].[moe](A)[sp].d(G)[sp].d(C)[sp].d(G)[sp].d(A)[sp].d(A)[sp].d(G)[sp].d(T)[sp].d(G)[sp].d(C)[sp].[moe](A)[sp].[moe](C)[sp].[moe](A)[sp].[moe](C)[sp].[moe](G)[sp].[moe](G)}$$$$V2.0”, the target mRNA inhibition by setting is: (HepG2, 0.0092593 µM) 11%; (HepG2, 0.0277778 µM) 27%; (HepG2, 0.07 µM) 88% and 80%; (HepG2, 0.0833333 µM) 58%; (HepG2, 0.25 µM) 80%.
Consider “RNA1{[moe](G)[sp].[moe](C)[sp].[moe](A)[sp].d(G)[sp].d(A)[sp].d(G)[sp].d(G)[sp].d(T)[sp].d(G)[sp].d(A)[sp].d(A)[sp].d(G)[sp].[moe](C)[sp].[moe](G)[sp].[moe](A)[sp].[moe](A)[sp].[moe](G)}$$$$V2.0”, for which the target mRNA inhibition (HepG2, 0.07 µM) was 75% and 66%.
Still for that read-out and setting: the figure for “RNA1{[moe](T)[sp].[moe](G)[sp].[moe](C)[sp].[moe](A)[sp].[moe](G)[sp].d(A)[sp].d(G)[sp].d(G)[sp].d(T)[sp].d(G)[sp].d(A)[sp].d(A)[sp].d(G)[sp].d(C)[sp].[moe](G)[sp].[moe](A)}$$$$V2.0” is 61% and 52%; for “RNA1{[moe](G)[sp].[cEt](G)[sp].[cEt](T)[sp].d(G)[sp].d(A)[sp].d(A)[sp].d(G)[sp].d(C)[sp].d(G)[sp].d(A)[sp].d(A)[sp].d(G)[sp].d(T)[sp].[cEt](G)[sp].[cEt](C)[sp].[moe](A)}$$$$V2.0” it is 79% and 75%; for “RNA1{[moe](G)[sp].[moe](C)[sp].[moe](A)[sp].d(T)[sp].d(A)[sp].d(G)[sp].d(C)[sp].d(A)[sp].d(G)[sp].d(C)[sp].d(A)[sp].d(G)[sp].[moe](G)[sp].[moe](A)[sp].[moe](T)[sp].[moe](G)}$$$$V2.0” it is 60% and 53%.
The same measure, in the same setting: under “RNA1{[moe](C)[sp].[moe](T)[sp].[moe](G)[sp].d(G)[sp].d(A)[sp].d(G)[sp].d(C)[sp].d(C)[sp].d(A)[sp].d(C)[sp].d(C)[sp].d(A)[sp].d(G)[sp].[cEt](C)[sp].[cEt](A)[sp].[cEt](G)}$$$$V2.0” stands 60%.
Still for that read-out and setting: the figure for “RNA1{[moe](A)[sp].[moe](C)[sp].[moe](T)[sp].d(G)[sp].d(G)[sp].d(A)[sp].d(G)[sp].d(C)[sp].d(C)[sp].d(A)[sp].d(C)[sp].d(C)[sp].d(A)[sp].[cEt](G)[sp].[cEt](C)[sp].[cEt](A)}$$$$V2.0” is 64% and 73%; for “RNA1{[moe](G)[sp].[cEt](A)[sp].[cEt](G)[sp].d(A)[sp].d(A)[sp].d(G)[sp].d(T)[sp].d(C)[sp].d(C)[sp].d(A)[sp].d(C)[sp].d(C)[sp].d(A)[sp].[cEt](C)[sp].[cEt](G)[sp].[moe](A)}$$$$V2.0” it is 62% and 54%; for “RNA1{[moe](A)[sp].[moe](C)[sp].[moe](G)[sp].[moe](G)[sp].d(G)[sp].d(C)[sp].d(A)[sp].d(A)[sp].d(C)[sp].d(A)[sp].d(T)[sp].d(A)[sp].d(C)[sp].[moe](C)[sp].[moe](T)[sp].[moe](T)[sp].[moe](G)}$$$$V2.0” it is 38% and 41%.
Turning to “RNA1{[moe](C)[sp].[moe](C)[sp].[moe](G)[sp].d(C)[sp].d(A)[sp].d(G)[sp].d(T)[sp].d(A)[sp].d(T)[sp].d(G)[sp].d(G)[sp].d(A)[sp].d(T)[sp].[cEt](C)[sp].[cEt](G)[sp].[cEt](G)}$$$$V2.0”, the target mRNA inhibition (HepG2, 0.07 µM) was 72% and 79%.
The same measure, in the same setting: under “RNA1{[moe](G)[sp].[cEt](A)[sp].d(A)[sp].d(C)[sp].d(T)[sp].d(G)[sp].d(G)[sp].d(A)[sp].d(G)[sp].d(C)[sp].d(C)[sp].d(A)[sp].[cEt](C)[sp].[moe](C)[sp].[cEt](A)[sp].[moe](G)}$$$$V2.0” stands 68% and 56%; under “RNA1{[moe](A)[sp].[moe](A)[sp].[moe](C)[sp].d(T)[sp].d(G)[sp].d(G)[sp].d(A)[sp].d(G)[sp].d(C)[sp].d(C)[sp].d(A)[sp].d(C)[sp].[moe](C)[sp].[moe](A)[sp].[moe](G)[sp].[moe](C)[sp].[moe](A)}$$$$V2.0”, 69% and 58%.
Take “RNA1{[moe](A)[sp].[cEt](A)[sp].[cEt](A)[sp].d(T)[sp].d(G)[sp].d(G)[sp].d(C)[sp].d(A)[sp].d(C)[sp].d(T)[sp].d(A)[sp].d(G)[sp].d(T)[sp].[cEt](A)[sp].[cEt](A)[sp].[moe](A)}$$$$V2.0”: for the setting “HepG2, 0.07 µM”, the target mRNA inhibition worked out at 51%.
With “RNA1{[moe](T)[sp].[moe](T)[sp].[moe](A)[sp].d(T)[sp].d(G)[sp].d(C)[sp].d(C)[sp].d(T)[sp].d(A)[sp].d(C)[sp].d(A)[sp].d(G)[sp].d(C)[sp].[cEt](C)[sp].[cEt](T)[sp].[cEt](C)}$$$$V2.0”, under “HepG2, 0.07 µM”, the target mRNA inhibition was 37% and 53%.
With “RNA1{[cEt](A)[sp].d(G)[sp].[cEt](G)[sp].d(T)[sp].[cEt](G)[sp].d(A)[sp].d(A)[sp].d(G)[sp].d(C)[sp].d(G)[sp].d(A)[sp].d(A)[sp].d(G)[sp].d(T)[sp].[moe](G)[sp].[moe](C)}$$$$V2.0”, the target mRNA inhibition (HepG2, 0.009375 µM) was found to be 14%; the target mRNA inhibition (HepG2, 0.01875 µM) was 21%; the target mRNA inhibition (HepG2, 0.0375 µM) was found to be 42%; the target mRNA inhibition (HepG2, 0.075 µM) amounted to 61%; the target mRNA inhibition (HepG2, 0.15 µM) is 80%; the target mRNA inhibition (HepG2, 0.3 µM) was determined as 92%.
Consider “RNA1{[moe](C)[sp].[moe](G)[sp].[moe](T)[sp].[moe](G)[sp].[moe](C)[sp].d(A)[sp].d(G)[sp].d(A)[sp].d(G)[sp].d(G)[sp].d(T)[sp].d(G)[sp].d(A)[sp].d(A)[sp].[moe](G)[sp].[moe](C)}$$$$V2.0”, for which the target mRNA inhibition (HepG2, 0.07 µM) is 59% and 51%.
Still for that read-out and setting: under “RNA1{[moe](G)[sp].[cEt](A)[sp].d(A)[sp].d(G)[sp].d(C)[sp].d(G)[sp].d(A)[sp].d(A)[sp].d(G)[sp].d(T)[sp].d(G)[sp].d(C)[sp].[cEt](A)[sp].[moe](C)[sp].[cEt](A)[sp].[moe](C)}$$$$V2.0” stands 74% and 76%; under “RNA1{[moe](C)[sp].[cEt](A)[sp].[cEt](A)[sp].d(T)[sp].d(T)[sp].d(T)[sp].d(A)[sp].d(T)[sp].d(G)[sp].d(C)[sp].d(C)[sp].d(T)[sp].d(A)[sp].[cEt](C)[sp].[cEt](A)[sp].[moe](G)}$$$$V2.0”, 49% and 41%; under “RNA1{[moe](G)[sp].[moe](T)[sp].[moe](T)[sp].[moe](C)[sp].[moe](C)[sp].d(G)[sp].d(C)[sp].d(A)[sp].d(G)[sp].d(T)[sp].d(A)[sp].d(T)[sp].d(G)[sp].d(G)[sp].[moe](A)[sp].[moe](T)}$$$$V2.0”, 54% and 51%.
On the same count and under the same terms, under “RNA1{[moe](C)[sp].[moe](C)[sp].[moe](A)[sp].[moe](A)[sp].[moe](T)[sp].d(T)[sp].d(T)[sp].d(A)[sp].d(T)[sp].d(G)[sp].d(C)[sp].d(C)[sp].d(T)[sp].d(A)[sp].[moe](C)[sp].[moe](A)}$$$$V2.0” stands 15% and 6%.
Same read-out and setting: under “RNA1{[moe](G)[sp].[moe](C)[sp].[moe](A)[sp].d(C)[sp].d(T)[sp].d(A)[sp].d(G)[sp].d(T)[sp].d(A)[sp].d(A)[sp].d(A)[sp].d(C)[sp].[moe](T)[sp].[moe](G)[sp].[moe](A)[sp].[moe](G)[sp].[moe](C)}$$$$V2.0” stands 74% and 68%; under “RNA1{[moe](G)[sp].[moe](A)[sp].[moe](G)[sp].d(T)[sp].d(T)[sp].d(C)[sp].d(C)[sp].d(G)[sp].d(C)[sp].d(A)[sp].d(G)[sp].d(T)[sp].[moe](A)[sp].[moe](T)[sp].[moe](G)[sp].[moe](G)[sp].[moe](A)}$$$$V2.0”, 61% and 62%.
On to “RNA1{[moe](T)[sp].[cEt](G)[sp].[cEt](A)[sp].d(A)[sp].d(G)[sp].d(C)[sp].d(G)[sp].d(A)[sp].d(A)[sp].d(G)[sp].d(T)[sp].d(G)[sp].d(C)[sp].[cEt](A)[sp].[cEt](C)[sp].[moe](A)}$$$$V2.0”, for which the target mRNA inhibition (HepG2, 0.07 µM) is 69% and 77%.
For “RNA1{[moe](A)[sp].[moe](T)[sp].[moe](T)[sp].[moe](T)[sp].[moe](A)[sp].[moe](T)[sp].d(G)[sp].d(C)[sp].d(C)[sp].d(T)[sp].d(A)[sp].d(C)[sp].d(A)[sp].d(G)[sp].d(C)[sp].[moe](C)[sp].[moe](T)}$$$$V2.0”, the target mRNA inhibition was 0% (HepG2, 0.0092593 µM); 12% (HepG2, 0.0277778 µM); 74% and 57% (HepG2, 0.07 µM); 24% (HepG2, 0.0833333 µM); 46% (HepG2, 0.25 µM).
Consider “RNA1{[moe](G)[sp].[moe](A)[sp].[moe](A)[sp].[moe](G)[sp].[moe](C)[sp].d(G)[sp].d(A)[sp].d(A)[sp].d(G)[sp].d(T)[sp].d(G)[sp].d(C)[sp].d(A)[sp].d(C)[sp].[moe](A)[sp].[moe](C)[sp].[moe](G)}$$$$V2.0”, for which the target mRNA inhibition (HepG2, 0.07 µM) was 80% and 58%.
For “RNA1{[moe](A)[sp].[moe](C)[sp].[moe](C)[sp].[moe](A)[sp].[moe](C)[sp].d(T)[sp].d(G)[sp].d(A)[sp].d(A)[sp].d(C)[sp].d(A)[sp].d(A)[sp].d(A)[sp].d(T)[sp].[moe](G)[sp].[moe](G)[sp].[moe](C)}$$$$V2.0”, the target mRNA inhibition (HepG2, 0.07 µM) was 59% and 61%.
Still for that read-out and setting: under “RNA1{[moe](A)[sp].[cEt](G)[sp].d(A)[sp].d(A)[sp].d(G)[sp].d(T)[sp].d(C)[sp].d(C)[sp].d(A)[sp].d(C)[sp].d(C)[sp].d(A)[sp].[cEt](C)[sp].[moe](G)[sp].[cEt](A)[sp].[moe](G)}$$$$V2.0” stands 55% and 37%; under “RNA1{[moe](A)[sp].[moe](G)[sp].[moe](T)[sp].d(C)[sp].d(C)[sp].d(A)[sp].d(C)[sp].d(C)[sp].d(A)[sp].d(C)[sp].d(G)[sp].d(A)[sp].d(G)[sp].[cEt](T)[sp].[cEt](C)[sp].[cEt](T)}$$$$V2.0”, 35% and 29%; under “RNA1{[moe](C)[sp].[moe](A)[sp].[moe](A)[sp].[moe](T)[sp].d(T)[sp].d(T)[sp].d(A)[sp].d(T)[sp].d(G)[sp].d(C)[sp].d(C)[sp].d(T)[sp].d(A)[sp].[moe](C)[sp].[moe](A)[sp].[moe](G)}$$$$V2.0”, 19% and 13%.

Source of the values: the OligoGym collection.
